Results reported in patent US8221993B2, “Methods of detecting methyl transferase activity and methods of screening for methyl transferase activity modulators” (Onco Therapy Science, Inc., priority 2004, dated 2012).

Legend:
Type in all cases: biochemical
ZNFN3A1 [1] = target: T1, ZNFN3A1 (Homo sapiens, UniProt Q9H7B4, K13N); experiment: In vitro histone H3-K4 methyltransferase assay, peptide competition; parameters: made in house; host or cells: transfected mammalian cells (293T), anti-Flag immunoprecipitate; details: recombinant histone H3, SAM and HSP90A, addition of competitor peptide, FIG. 2b
T1 sequence (Q9H7B4 1-428 K13N): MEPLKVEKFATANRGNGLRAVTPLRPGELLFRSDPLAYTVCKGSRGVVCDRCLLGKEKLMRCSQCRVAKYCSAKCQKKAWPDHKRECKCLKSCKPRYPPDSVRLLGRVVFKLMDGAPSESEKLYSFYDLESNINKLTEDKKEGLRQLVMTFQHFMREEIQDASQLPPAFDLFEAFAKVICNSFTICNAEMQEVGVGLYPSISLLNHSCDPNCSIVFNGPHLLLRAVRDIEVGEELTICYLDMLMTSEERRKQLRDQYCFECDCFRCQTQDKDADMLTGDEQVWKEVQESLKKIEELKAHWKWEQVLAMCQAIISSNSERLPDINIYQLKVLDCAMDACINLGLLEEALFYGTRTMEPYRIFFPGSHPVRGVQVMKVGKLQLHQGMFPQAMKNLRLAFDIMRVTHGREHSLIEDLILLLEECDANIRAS
Protocol: H3-K4 specific methyltransferase activity was examined by western blot analysis of recombinant Xenopus H3 protein (UBI) incubated with the immunoprecipitants in the presence of 20 μM unlabeled S-adenosyl-L-methionine (SAM) and 2 μg of HSP90A for 1 hr at 30° C., using antibodies against mono-methylated (Abcam; ab8895), di-methylated (Abcam; ab7766), tri-methylated (Abcam; ab8580) H3-K4, total H3 (Abcam; ab1791), or tri-methylated H3-K9 (UBI; 07523). Lysates of cells transfected with plasmid expressing Flag-tagged wild-type ZNFN3A1, mutant ZNFN3A1, SET7/9, SUV39H1, or mock were immunoprecipitated with anti-Flag antibody (Sigma). Peptides to di-methylated H3-K4 (Abcam; ab7768, ARTK-Me2-QTAR-GGC) and di-methylated H3-K9 (Abcam; ab1772, QTARK-Me2-ST-GGC) were used for competition assay. Recombinant ZNFN3A1 was expressed in E. coli bacteria with plasmids expressing GST-fused ZNFN3A1 or in Sf9 cells with plasmids expressing HA-tagged ZNFN3A1. H3-methyltransferase activity was also analyzed in the presence or absence of 0.04 U SAHH (Sigma) using immunoprecipitated ZNFN3A1 protein or recombinant ZNFN3A1 purified from Sf9 cells.
Since proteins containing SET domain play a crucial role in methylation of histone H3 lysine 4 (H3-K4) or lysine 9 (H3-K9), we investigated whether ZNFN3A1 has an ability to methylate H3-K4 or H3-K9. […]

ZNFN3A1 [2] = target: T1, ZNFN3A1; experiment: In vitro histone H3 methyltransferase activity in the presence or absence of SAHH; parameters: made in house; host or cells: 293T cells transfected with pFLAG-CMV-ZNFN3A1, anti-Flag immunoprecipitate; details: presence versus absence of SAHH, FIG. 3d
Protocol: (§1) 293T cells were transfected with plasmid expressing Flag-tagged ZNFN3A1 (pFLAG-CMV-ZNFN3A1), SET7 protein or mock, and purified tagged proteins by immunoprecipitation with anti-Flag antibody. In vitro HMTase assay was performed according to the protocol (1) with a slight modification. Briefly, immunoprecipitated protein was incubated with 25 μg of free histones (mixture of H3, H2B, H2A and H4; Roche) as substrates and 2.5 μCi S-adenosyl-L-[methyl-^3H] methionine as methyl donor in a mixture of 40 μl of methylase activity buffer (50 mM Tris-HCl pH 8.5, 20 mM KCl, 10 mM MgCl2, 10 mM β-mercaptoethanol, 250 mM sucrose), for 60 min at 37° C. […]
H3-K4 specific methyltransferase activity was examined by western blot analysis of recombinant Xenopus H3 protein (UBI) incubated with the immunoprecipitants in the presence of 20 μM unlabeled S-adenosyl-L-methionine (SAM) and 2 μg of HSP90A for 1 hr at 30° C., using antibodies against mono-methylated (Abcam; ab8895), di-methylated (Abcam; ab7766), tri-methylated (Abcam; ab8580) H3-K4, total H3 (Abcam; ab1791), or tri-methylated H3-K9 (UBI; 07523). […] H3-methyltransferase activity was also analyzed in the presence or absence of 0.04 U SAHH (Sigma) using immunoprecipitated ZNFN3A1 protein or recombinant ZNFN3A1 purified from Sf9 cells. […]

ZNFN3A1 [3] = target: T1, ZNFN3A1; experiment: In vitro HMTase assay of SET domain of ZNFN3A1 with/without recombinant HSP90A; parameters: made in house; host or cells: transfected mammalian cells (293T), anti-Flag immunoprecipitate; details: wild-type SET of ZNFN3A1, SAM and histones, with recombinant HSP90A, FIG. 1c lane 4 and 5
Protocol: as §1
Proteins containing the wild-type SET domain of ZNFN3A1 and two forms of mutant protein that lacked one of the two regions were prepared, and cross-linked equal amount of each protein with [^3H]-labeled SAM by exposure to UV-radiation. […] The wild-type SET or control recombinant protein of SET7 was further incubated with [^3H]-labeled SAM and a mixture of histones as substrates, and labeled protein after the separation on SDS-PAGE was measured. As expected, a strong band corresponding to [^3H]-labeled histone H3 protein by the control SET7 (FIG. 1c, lane 3) was detected. When substrates were incubated with the wild-type SET of ZNFN3A1, a faint band corresponding to labeled histone H3 was detected, which was not observed with mock (FIG. 1c, lane 1 and 2). […]

Row | di- and tri-methylation of H3-K4 by wild-type ZNFN3A1 (ZNFN3A1 [1]) | Substance | other results
1 | unaffected | QTARK-Me2-ST-GGC [di-methylated H3-K9 peptides] | –
2 | – | S-adenosyl homocysteine hydrolase [SAHH] | H3 methyltransferase activity of Flag-tagged ZNFN3A1 (ZNFN3A1 [2]): significantly higher
3 | completely inhibited | ARTK-Me2-QTAR-GGC [di-methylated H3-K4 peptides] | –
4 | – | HSP90A: recombinant 90-kD heat shock protein, interacting protein of ZNFN3A1 | methyl transferase activity onto histone H3 (ZNFN3A1 [3]): enhanced methyl transferase activity
